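96-well plates; 48 h exposure; 5 concentrations. Endpoints by linear interpolation between flanking doses. Not reached: highest tested concentration assigned. GI50 = concentration required for 50% inhibition of growth.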 Calls of active or inactive are those of the source. No stated cut-off is given here; in the data, active = GI50 up to about 1.1 µM and inactive = higher.
Experiments:
Test in all cases: inhibition of tumour cell growth, NCI panel, 48 h
[1] = test system: HL-60
[2] = test system: UO-31
[3] = test system: RPMI-8226
[4] = test system: NCI-H226
[5] = test system: HT-29
[6] = test system: LOX IMVI
[7] = test system: SK-MEL-2
[8] = test system: CAKI-1
[9] = test system: OVCAR-3
[10] = test system: PC-3
[11] = test system: U-251
[12] = test system: SNB-19
[13] = test system: SN12C
[14] = test system: SF-295
[15] = test system: SK-MEL-28
[16] = test system: SF-268
[17] = test system: MOLT-4
[18] = test system: HCC 2998
[19] = test system: MCF7
[20] = test system: M14

C[C@H]1[C@H](C)CC[C@]2(C(=O)OC3OC(CO)C(O)C(O)C3O)CC[C@]3(C)C(=CC[C@@H]4[C@@]5(C)C[C@H]6OC(=O)c7cc(O)c(O)c(O)c7-c7c(cc(O)c(O)c7O)C(=O)O[C@@H]6C(CO)(CO)[C@@H]5CC[C@]43C)[C@H]12 (stereo not given in full)
GI50 [1]: 44 µM (inactive)
GI50 [2]: 58.1 µM (inactive)
GI50 [3]: > 100 µM (inactive)
GI50 [4]: > 91.8 µM (inactive)
GI50 [5]: 24.1 µM (inactive)
GI50 [6]: 16.4 µM (inactive)
GI50 [7]: > 100 µM (inactive)
GI50 [8]: 19.5 µM (inactive)
GI50 [9]: > 43 µM (inactive)
GI50 [10]: > 82.6 µM (inactive)
GI50 [11]: 17.7 µM (inactive)
GI50 [12]: 43.7 µM (inactive)
GI50 [13]: 58.3 µM (inactive)
GI50 [14]: 40.6 µM (inactive)
GI50 [15]: > 100 µM (inactive)
GI50 [16]: > 69.8 µM (inactive)
GI50 [17]: > 41.5 µM (inactive)
GI50 [18]: 82.4 µM (inactive)
GI50 [19]: 17 µM (inactive)
GI50 [20]: > 100 µM (inactive)

Cc1cc(/N=C/c2ccc(N(C)C)cc2)n(-c2ccccc2)n1
GI50 [1]: 17.9 µM (inactive)
GI50 [2]: > 100 µM (inactive)
GI50 [3]: 91.8 µM (inactive)
GI50 [4]: 50.5 µM (inactive)
GI50 [5]: 12.6 µM (inactive)
GI50 [6]: 48.3 µM (inactive)
GI50 [7]: > 100 µM (inactive)
GI50 [8]: 62.7 µM (inactive)
GI50 [9]: 9.16 µM (inactive)
GI50 [10]: 48.4 µM (inactive)
GI50 [11]: 27.4 µM (inactive)
GI50 [12]: 61.2 µM (inactive)
GI50 [13]: 28.4 µM (inactive)
GI50 [14]: 30.8 µM (inactive)
GI50 [15]: > 100 µM (inactive)
GI50 [16]: 74.3 µM (inactive)
GI50 [17]: 42.6 µM (inactive)
GI50 [18]: 20.1 µM (inactive)
GI50 [19]: 31 µM (inactive)
GI50 [20]: 49.2 µM (inactive)

OC(O)(C(F)(F)F)C(F)(F)F
GI50 [1]: > 100 µM (inactive)
GI50 [2]: > 100 µM (inactive)
GI50 [3]: > 100 µM (inactive)
GI50 [4]: > 100 µM (inactive)
GI50 [5]: > 100 µM (inactive)
GI50 [6]: > 100 µM (inactive)
GI50 [7]: > 100 µM (inactive)
GI50 [8]: > 100 µM (inactive)
GI50 [9]: > 100 µM (inactive)
GI50 [10]: > 100 µM (inactive)
GI50 [11]: > 100 µM (inactive)
GI50 [12]: > 100 µM (inactive)
GI50 [13]: > 100 µM (inactive)
GI50 [14]: > 100 µM (inactive)
GI50 [15]: > 100 µM (inactive)
GI50 [16]: > 100 µM (inactive)
GI50 [17]: > 100 µM (inactive)
GI50 [18]: > 100 µM (inactive)
GI50 [19]: > 100 µM (inactive)
GI50 [20]: > 100 µM (inactive)

CC(=O)Nc1ccc(/C=C2/NC(=S)N(/C=C3\C(=O)Oc4ccccc4C3=O)C2=O)cc1
GI50 [1]: 40.5 µM (inactive)
GI50 [2]: 39.5 µM (inactive)
GI50 [3]: 47.9 µM (inactive)
GI50 [4]: > 100 µM (inactive)
GI50 [5]: 44.9 µM (inactive)
GI50 [6]: > 100 µM (inactive)
GI50 [7]: 40.9 µM (inactive)
GI50 [8]: 49.5 µM (inactive)
GI50 [9]: 24 µM (inactive)
GI50 [10]: 54.5 µM (inactive)
GI50 [11]: 46.3 µM (inactive)
GI50 [12]: > 100 µM (inactive)
GI50 [13]: 94.6 µM (inactive)
GI50 [14]: 49.8 µM (inactive)
GI50 [15]: 85.7 µM (inactive)
GI50 [16]: 29.4 µM (inactive)
GI50 [17]: 48 µM (inactive)
GI50 [18]: 43.2 µM (inactive)
GI50 [19]: > 100 µM (inactive)
GI50 [20]: 58.3 µM (inactive)

C/C=C/COc1cc(NC(=S)OC(C)C)ccc1Cl.C/C=C\COc1cc(NC(=S)OC(C)C)ccc1Cl
GI50 [1]: 19.3 µM (inactive)
GI50 [2]: 12 µM (inactive)
GI50 [3]: 70.1 µM (inactive)
GI50 [4]: 17.5 µM (inactive)
GI50 [5]: 15.3 µM (inactive)
GI50 [6]: 19.5 µM (inactive)
GI50 [7]: 13.6 µM (inactive)
GI50 [8]: 4.06 µM (inactive)
GI50 [9]: 18.5 µM (inactive)
GI50 [10]: 16.3 µM (inactive)
GI50 [11]: 16.9 µM (inactive)
GI50 [12]: 20.7 µM (inactive)
GI50 [13]: 14.2 µM (inactive)
GI50 [14]: 20.2 µM (inactive)
GI50 [15]: 17.6 µM (inactive)
GI50 [16]: 17.7 µM (inactive)
GI50 [17]: 14.8 µM (inactive)
GI50 [18]: 16.1 µM (inactive)
GI50 [19]: 19.8 µM (inactive)
GI50 [20]: 24.2 µM (inactive)

CCCCC(=C=C1CCCCC1O)C1CCCN1C(=O)OC(C)(C)C (stereo not given)
GI50 [1]: 11.1 µM (inactive)
GI50 [2]: 21.3 µM (inactive)
GI50 [3]: 12.6 µM (inactive)
GI50 [4]: 17.4 µM (inactive)
GI50 [5]: 14.3 µM (inactive)
GI50 [6]: 17.7 µM (inactive)
GI50 [7]: 16.2 µM (inactive)
GI50 [8]: 11.5 µM (inactive)
GI50 [9]: 15.7 µM (inactive)
GI50 [10]: 16.1 µM (inactive)
GI50 [11]: 15.9 µM (inactive)
GI50 [12]: 16.4 µM (inactive)
GI50 [13]: 17.8 µM (inactive)
GI50 [14]: 14.8 µM (inactive)
GI50 [15]: 15.5 µM (inactive)
GI50 [16]: 17.3 µM (inactive)
GI50 [17]: 15.8 µM (inactive)
GI50 [18]: 22.1 µM (inactive)
GI50 [19]: 17.2 µM (inactive)
GI50 [20]: 16.9 µM (inactive)

OCC(O)C(O)C(O)C(O)c1nc2cc(Cl)ccc2[nH]1 (stereo not given)
GI50 [1]: 2.14 µM (inactive)
GI50 [2]: > 100 µM (inactive)
GI50 [3]: > 100 µM (inactive)
GI50 [4]: 26.2 µM (inactive)
GI50 [5]: > 100 µM (inactive)
GI50 [6]: > 100 µM (inactive)
GI50 [7]: > 100 µM (inactive)
GI50 [8]: > 100 µM (inactive)
GI50 [9]: > 100 µM (inactive)
GI50 [10]: > 100 µM (inactive)
GI50 [11]: > 100 µM (inactive)
GI50 [12]: > 100 µM (inactive)
GI50 [13]: > 100 µM (inactive)
GI50 [14]: 28.8 µM (inactive)
GI50 [15]: > 100 µM (inactive)
GI50 [16]: > 100 µM (inactive)
GI50 [17]: > 100 µM (inactive)
GI50 [18]: > 100 µM (inactive)
GI50 [19]: > 100 µM (inactive)
GI50 [20]: > 100 µM (inactive)

Cc1cc2oc(=O)c(Cl)c(Cl)c2c(C)c1Cl
GI50 [1]: 1.91 µM (inactive)
GI50 [2]: 12.7 µM (inactive)
GI50 [3]: 2.35 µM (inactive)
GI50 [4]: 17.3 µM (inactive)
GI50 [5]: 4.78 µM (inactive)
GI50 [6]: 2.76 µM (inactive)
GI50 [7]: 4.44 µM (inactive)
GI50 [8]: 4.74 µM (inactive)
GI50 [9]: 2.58 µM (inactive)
GI50 [10]: 11.4 µM (inactive)
GI50 [11]: 3.19 µM (inactive)
GI50 [12]: 11.8 µM (inactive)
GI50 [13]: 11.5 µM (inactive)
GI50 [14]: 14.4 µM (inactive)
GI50 [15]: 15.4 µM (inactive)
GI50 [16]: 3.22 µM (inactive)
GI50 [17]: 2.1 µM (inactive)
GI50 [18]: 5.51 µM (inactive)
GI50 [19]: 5.64 µM (inactive)
GI50 [20]: 10.4 µM (inactive)

NS(=O)(=O)c1ccc(Nc2c3ccccc3nc3c(C(=O)NC(CO)(CO)CO)cccc23)cc1
GI50 [1]: 0.21 µM (active)
GI50 [2]: 0.171 µM (active)
GI50 [3]: 0.217 µM (active)
GI50 [4]: 0.136 µM (active)
GI50 [5]: 0.184 µM (active)
GI50 [6]: 0.132 µM (active)
GI50 [7]: 0.21 µM (active)
GI50 [8]: 0.218 µM (active)
GI50 [9]: 0.15 µM (active)
GI50 [10]: 0.226 µM (active)
GI50 [11]: 0.119 µM (active)
GI50 [12]: 0.217 µM (active)
GI50 [13]: 0.199 µM (active)
GI50 [14]: 0.294 µM (active)
GI50 [15]: 0.242 µM (active)
GI50 [16]: 0.17 µM (active)
GI50 [17]: 0.0468 µM (active)
GI50 [18]: 0.212 µM (active)
GI50 [19]: 0.0143 µM (active)
GI50 [20]: 0.186 µM (active)

NC(=O)c1ccc(NS(=O)(=O)c2ccc(N)cc2)nc1
GI50 [1]: > 100 µM (inactive)
GI50 [2]: > 100 µM (inactive)
GI50 [3]: > 100 µM (inactive)
GI50 [4]: > 100 µM (inactive)
GI50 [5]: > 100 µM (inactive)
GI50 [6]: > 100 µM (inactive)
GI50 [7]: > 100 µM (inactive)
GI50 [8]: > 100 µM (inactive)
GI50 [9]: > 100 µM (inactive)
GI50 [10]: > 100 µM (inactive)
GI50 [11]: > 100 µM (inactive)
GI50 [12]: > 100 µM (inactive)
GI50 [13]: > 100 µM (inactive)
GI50 [14]: > 100 µM (inactive)
GI50 [15]: > 100 µM (inactive)
GI50 [16]: > 100 µM (inactive)
GI50 [17]: > 100 µM (inactive)
GI50 [18]: > 100 µM (inactive)
GI50 [19]: > 100 µM (inactive)
GI50 [20]: > 100 µM (inactive)

CC(C)CNc1nc(N)nc(O)c1NC=O
GI50 [1]: > 100 µM (inactive)
GI50 [2]: > 100 µM (inactive)
GI50 [3]: > 100 µM (inactive)
GI50 [4]: > 100 µM (inactive)
GI50 [5]: > 100 µM (inactive)
GI50 [6]: > 100 µM (inactive)
GI50 [7]: > 100 µM (inactive)
GI50 [8]: > 100 µM (inactive)
GI50 [9]: > 100 µM (inactive)
GI50 [10]: > 100 µM (inactive)
GI50 [11]: > 100 µM (inactive)
GI50 [12]: > 100 µM (inactive)
GI50 [13]: > 100 µM (inactive)
GI50 [14]: > 100 µM (inactive)
GI50 [15]: > 100 µM (inactive)
GI50 [16]: > 100 µM (inactive)
GI50 [17]: > 100 µM (inactive)
GI50 [18]: > 100 µM (inactive)
GI50 [19]: > 100 µM (inactive)
GI50 [20]: > 100 µM (inactive)

From ChEMBL document CHEMBL1201862, “PubChem BioAssay data set” (2004)
